Counter-ions that a name gives are not always drawn.
SMILES | melting point [°C]
O=C(O)COc1cccc(/C=C\COC(=O)N(c2ccccc2)c2ccccc2)c1 (as salt: salt) [Example 9, Cis-[3-(3-Diphenylcarbamoyloxypropenyl)phenoxy]acetic acid] | 132.5 to 135
O=C(O)COc1cccc(/C=C\CCOC(=O)N(c2ccccc2)c2ccccc2)c1 (as salt: salt) [Example 10A, cis-[3-(4-diphenylcarbamoyloxybut-1-enyl)phenoxy]acetic acid tert-butylamine salt] | 112.5 to 112.8
O=C(O)COc1cccc(/C=C\COC(=O)N(Cc2ccccc2)c2ccccc2)c1 (as salt: salt) [Example 10B, cis-{3-[3-(benzylphenylcarbamoyloxypropenyl)phenoxy]acetic acid tert-butylamine salt] | 107 to 108.5
O=C(O)CCc1cccc(/C=C\COC(=O)N(c2ccccc2)c2ccccc2)c1 (as salt: salt) [Example 13, cis-3-[3-(3-Diphenylcarbamoyloxypropenyl)phenyl]propionic acid] | 131.8 to 132.4
O=C(O)COc1cccc(COC(=O)N(c2ccccc2)c2ccccc2)c1Cl [Example 1, {2-Chloro-3-[(diphenylcarbamoyloxy)methyl]phenoxy}acetic acid] | 182.2 to 182.9
Cc1c(COC(=O)N(c2ccccc2)c2ccccc2)cccc1OCC(=O)O [Example 2, {3-[(Diphenylcarbamoyloxy)methyl]-2-methylphenoxy}acetic acid] | 180.1 to 180.7
O=C(O)COc1cccc(COC(=O)N(c2ccccc2)c2ccccc2)c1 [Example 4, {3-[(Diphenylcarbamoyloxy)methyl]phenoxy}acetic acid] | 142.2 to 143.8
O=C(O)COc1cccc(/C=C/COC(=O)N(c2ccccc2)c2ccccc2)c1 [Example 6, Trans-[3-(3-Diphenylcarbamoyloxypropenyl)phenoxy}acetic acid] | 112.4 to 113.7
Cc1c(/C=C\COC(=O)N(c2ccccc2)c2ccccc2)cccc1OCC(=O)O [Example 8, Cis-[3-(3-Diphenylcarbamoyloxypropenyl)-2-methylphenoxy]acetic acid] | 133.4 to 135.5
CC(C)(C)N.O=C(O)CCCOc1cccc(/C=C\COC(=O)N(c2ccccc2)c2ccccc2)c1 [Example 10A, cis-4-[3-(3-diphenylcarbamoyloxypropenyl)phenoxy]butyric acid tert-butylamine salt] | 102 to 106
O=C(O)CCCCOc1cccc(/C=C\COC(=O)N(c2ccccc2)c2ccccc2)c1 [Example 10A, cis-5-[3-(3-diphenylcarbamoyloxypropenyl)phenoxy]pentanoic acid] | 56.3 to 56.7
CC(C)(C)N.O=C(O)COc1cccc(/C=C\CCCCOC(=O)N(c2ccccc2)c2ccccc2)c1 [Example 10A, cis-[3-(6-diphenylcarbamoyloxyhex-1-enyl)phenoxy]acetic acid tert-butylamine salt] | 87 to 88.5
O=C(O)Cc1cccc(CCOC(=O)N(c2ccccc2)c2ccccc2)c1 [Example 12, [3-(2-diphenylcarbamoyloxyethyl)phenyl]acetic acid] | 123 to 123.3
Cc1c(CCCOC(=O)N(c2ccccc2)c2ccccc2)cccc1CC(=O)O [Example 12, [3-(3-diphenylcarbamoyloxypropyl)-2-methylphenyl]acetic acid] | 128.7 to 129.2
O=C(O)Cc1cccc(CCCCOC(=O)N(c2ccccc2)c2ccccc2)c1 [Example 12, [3-(4-diphenylcarbamoyloxybutyl)phenyl]acetic acid] | 117.8 to 119.6
O=C(O)Cc1cccc(CCCCCOC(=O)N(c2ccccc2)c2ccccc2)c1 [Example 12, [3-(5-diphenylcarbamoyloxypentyl)phenyl]acetic acid] | 128.1 to 128.7
O=C(O)Cc1cccc(CCCCCCOC(=O)N(c2ccccc2)c2ccccc2)c1 [Example 12, [3-(6-diphenylcarbamoyloxyhexyl)phenyl]acetic acid] | 99.8 to 101.7
CC(C)(C)N.O=C(O)Cc1cccc(/C=C\CCOC(=O)N(c2ccccc2)c2ccccc2)c1 [Example 14A, cis-[3-(4-diphenylcarbamoyloxybut-1-enyl)phenyl]acetic acid tert-butylamine salt] | 151.2 to 153.1
CC(C)(C)N.O=C(O)c1cccc(/C=C\COC(=O)N(c2ccccc2)c2ccccc2)c1 [Example 14B, cis-3-(3-diphenylcarbamoyloxypropenyl)benzoic acid tert-butylamine salt] | 180.5 to 184
CC(C)(C)N.O=C(O)c1cccc(/C=C\CCOC(=O)N(c2ccccc2)c2ccccc2)c1 [Example 14B, cis-3-(4-diphenylcarbamoyloxybut-1-enyl)benzoic acid tert-butylamine salt] | 172.8 to 176.8
CC(C)(C)N.CC(CCc1cccc(CC(=O)O)c1)OC(=O)N(c1ccccc1)c1ccccc1 (stereo not drawn) [Example 14C, [3-(3-diphenylcarbamoyloxybutyl)phenyl]acetic acid tert-butylamine salt] | 112.3 to 113.1

From US6335459B1, “Aryl carboxylic acid and aryl tetrazole derivatives as IP receptor modulators” (Syntex (U.S.A.) LLC, priority 1998, dated 2002)
